Results: patent US20160150782A1, “USE OF SELECTED PYRIDONE CARBOXAMIDES OR SALTS THEREOF AS ACTIVE SUBSTANCES AGAINST ABIOTIC PLANT STRESS” (BAYER CROPSCIENCE AKTIENGESELLSCHAFT, priority 2013, published 2016)

These compounds were tested on Zea mays (corn) (assay: Drought stress test on sprayed greenhouse plants, visual damage scoring (Table 2)). Details: efficacy = reduction in damage intensity, dosage 2.5 g/ha, spray WP, 600 l/ha water.
Format: in vivo
Set-up: key: reduction in damage intensity, damage assessed in %
Procedure: (§1) Seeds of monocotyledonous and dicotyledonous crop plants are sown in sandy loam in plastic or wood-fiber pots, covered with soil or sand and cultivated in a greenhouse under good growth conditions. The test plants are treated at the early leaf stage (BBCH10-BBCH13). To assure uniform water supply before commencement of stress, the potted plants are supplied with water by dam irrigation prior to substance application. The inventive compounds, formulated in the form of wettable powders (WP), are sprayed onto the green parts of the plants as an aqueous suspension at an equivalent water application rate of 600 I/ha with addition of 0.2% wetting agent (e.g. agrotin). Substance application is followed immediately by stress treatment of the plants. For this purpose, the wood-fiber pots are transferred in plastic inserts in order to prevent them from subsequently drying out too quickly. Drought stress is induced by gradual drying out under the following conditions: “Day”: 14 hours with illumination at 26-30° C. “Night”: 10 hours without illumination at 18-20° C. The duration of the respective stress phases is guided mainly by the condition of the stressed control plants. […] The end of the stress phase is followed by an approx. 4-14-day recovery phase, during which the plants are once again kept under good growth conditions in a greenhouse. The duration of the recovery phase is guided mainly by when the trial plants have attained a state which enables visual scoring of potential effects, and is therefore variable. […] The damage intensity is at first assessed in percent.

Row | Structure (SMILES) | E (ZEAMX)
1 | COCCNC(=O)c1cc(Br)c(C)[nH]c1=O [compound 2423] | >5

Same assay, conditions: efficacy = reduction in damage intensity, dosage 25 g/ha, spray WP, 600 l/ha water

Row | Structure (SMILES) | E (ZEAMX)
2 | CCc1cc(C(=O)NC2CCC2)c(=O)[nH]c1C(F)(F)Cl [compound 777] | >5
3 | COCCNC(=O)c1cc(C)c(C(F)(F)C(F)(F)F)[nH]c1=O [compound 266] | >5
4 | CCc1[nH]c(=O)c(C(=O)N(C)CC(=O)OC)cc1C [compound 2817] | >5
5 | CCCNC(=O)c1cc(Cl)c(C)[nH]c1=O [compound 2270] | >5
6 | CCNC(=O)c1cc(Cl)c(C(F)(F)F)[nH]c1=O [compound 1212] | >5
7 | CCCNC(=O)c1cc(C)c(C(F)(F)C(F)(F)F)[nH]c1=O [compound 223] | >5
8 | CCCNC(=O)c1cc(I)c(CCC)[nH]c1=O [compound 3920] | >5
9 | CCc1cc(C(=O)NC(C)C)c(=O)[nH]c1C(F)(F)C(F)(F)F [compound 664] | >5
10 | COCCNC(=O)c1cc(C)c(C)[nH]c1=O [compound 46] | >5
11 | CCc1cc(C(=O)NCC(=O)OC)c(=O)[nH]c1C(F)(F)F [compound 610] | >5
12 | CC(C)C(C)NC(=O)c1cc(Br)c(C(F)C(F)(F)F)[nH]c1=O (stereo not drawn) [compound 2128] | >5
13 | COC(=O)CNC(=O)c1cc(C)c(C)[nH]c1=O [compound 59] | >5
14 | CCc1cc(C(=O)NC(C)CC(C)C)c(=O)[nH]c1C(F)(F)C(F)(F)F (stereo not drawn) [compound 696] | >5
15 | CCCc1[nH]c(=O)c(C(=O)NCCC(C)C)cc1I [compound 3940] | >5

Same assay, conditions: efficacy = reduction in damage intensity, dosage 250 g/ha, spray WP, 600 l/ha water

Row | Structure (SMILES) | E (ZEAMX)
16 | CN(C)C(=O)c1cc(Br)c(C(F)(Cl)C(F)(F)F)[nH]c1=O (stereo not drawn) [compound 2085] | >5
17 | CNC(=O)c1cc(C)c(C(F)(F)C(F)(F)F)[nH]c1=O [compound 221] | >5
18 | Cc1[nH]c(=O)c(C(=O)NCCC(C)C)cc1Cl [compound 2290] | >5
19 | CCCNC(=O)c1cc(C)c(C)[nH]c1=O [compound 3] | >5
20 | Cc1cc(C(=O)NCC(=O)O)c(=O)[nH]c1C(F)(F)F [compound 170] | >5
21 | Cc1cc(C(=O)NC(C)CC(C)C)c(=O)[nH]c1C (stereo not drawn) [compound 36] | >5
22 | CC(C)(C)CNC(=O)c1cc(I)c(C(F)(F)F)[nH]c1=O [compound 2223] | >5
23 | CCNC(=O)c1cc(C)c(C(F)(F)C(F)(F)F)[nH]c1=O [compound 222] | >5
24 | Cc1cc(C(=O)N(C)c2ccccc2)c(=O)[nH]c1C(F)(F)F [compound 219, N,5-Dimethyl-2-oxo-N-phenyl-6-(trifluoromethyl)-1,2-dihydropyridine-3-carboxamide] | >5
25 | CCCc1cc(C(=O)NCC(=O)OC)c(=O)[nH]c1C(F)(F)C(F)(F)F [compound 1159] | >5
26 | CC(C)C(C)NC(=O)c1cc(Cl)c(C(F)(F)C(F)(F)Cl)[nH]c1=O (stereo not drawn) [compound 1578] | >5

Each compound was assayed on Brassica napus (assay: Drought stress test on sprayed greenhouse plants, visual damage scoring (Table 3)). Details: efficacy = reduction in damage intensity, dosage 25 g/ha, spray WP, 600 l/ha water.
Format: in vivo
Set-up: key: reduction in damage intensity, damage assessed in %
Procedure: as §1

Row | Structure (SMILES) | E (BRSNS)
27 | CCc1cc(C(=O)NCC(OC)OC)c(=O)[nH]c1C(F)(F)Cl [compound 813] | >5
28 | CCC(CC)NC(=O)c1cc(Br)c(C(F)(Cl)C(F)(F)F)[nH]c1=O (stereo not drawn) [compound 2020] | >5
29 | CCOC(=O)C1CCCCN1C(=O)c1cc(Cl)c(C(F)(F)Cl)[nH]c1=O (stereo not drawn) [compound 1744, 1-({5′-chloro-6′-[chloro(difluoro)methyl]-2′-oxo-1′,2′-dihydropyridin-3′-yl}carbonyl)-piperidine-2-carboxylic acid ethyl ester] | >5
30 | CC(C)CC(C)NC(=O)c1cc(Br)c(C(F)(Cl)C(F)(F)F)[nH]c1=O (stereo not drawn) [compound 2016] | >5
31 | Cc1cc(C(=O)NC(C)CC(C)C)c(=O)[nH]c1C(F)(F)C(F)(F)F (stereo not drawn) [compound 256] | >5
32 | Cc1cc(C(=O)NC(C)CC(C)C)c(=O)[nH]c1C(F)(Cl)C(F)(F)F (stereo not drawn) [compound 2246] | >5
33 | COCCCNC(=O)c1cc(I)c(C(F)C(F)(F)F)[nH]c1=O (stereo not drawn) [compound 2233] | >5
34 | COCCNC(=O)c1cc(C)c(C(F)(F)C(F)(F)F)[nH]c1=O [compound 266] | >5
35 | Cc1cc(C(=O)NC2CC2)c(=O)[nH]c1C(F)(F)C(F)(F)F [compound 225] | >5
36 | Cc1cc(C(=O)NC(C)C(C)C)c(=O)[nH]c1C(F)(F)C(F)(F)F (stereo not drawn) [compound 258] | >5
37 | CNC(=O)c1cc(I)c(C(F)(F)F)[nH]c1=O [compound 2220] | >5
38 | CCOC(=O)C1CCCCN1C(=O)c1cc(C)c(C(F)(F)F)[nH]c1=O (stereo not drawn) [compound 204] | >5
39 | CCc1cc(C(=O)NC(C)CN(C)C)c(=O)[nH]c1C(F)(F)C(F)(F)Cl (stereo not drawn) [compound 933] | >5
40 | C=C(C)CNC(=O)c1cc(C)c(C(F)(F)C(F)(F)F)[nH]c1=O [compound 247] | >5
41 | Cc1cc(C(=O)NCC2CC2)c(=O)[nH]c1C(F)(F)C(F)(F)F [compound 233] | >5

Same assay, conditions: efficacy = reduction in damage intensity, dosage 50 g/ha, spray WP, 600 l/ha water

Row | Structure (SMILES) | E (BRSNS)
42 | C=CCNC(=O)c1cc(Br)c(C(F)(F)F)[nH]c1=O [compound 1785] | >5

Same assay, conditions: efficacy = reduction in damage intensity, dosage 250 g/ha, spray WP, 600 l/ha water

Row | Structure (SMILES) | E (BRSNS)
43 | C=CCNC(=O)c1cc(Cl)c(C(F)(F)C(F)(F)Cl)[nH]c1=O [compound 1565] | >5
44 | CC(C)C(C)NC(=O)c1cc(Cl)c(C(F)(F)Cl)[nH]c1=O (stereo not drawn) [compound 1688] | >5
45 | COCCNC(=O)c1cc(C)c(C)[nH]c1=O [compound 46] | >5
46 | Cc1cc(C(=O)NCC2CC2)c(=O)[nH]c1C [compound 13] | >5
47 | CCCC(C)NC(=O)c1cc(C)c(C)[nH]c1=O (stereo not drawn) [compound 32, 5,6-Dimethyl-2-oxo-N-(pentan-2-yl)-1,2-dihydropyridine3-carboxamide] | >5
48 | CCC(C)NC(=O)c1cc(C)c(C)[nH]c1=O (stereo not drawn) [compound 29] | >5
49 | CCCc1cc(C(=O)NCCCOC)c(=O)[nH]c1C(F)(F)C(F)(F)F [compound 1154] | >5
50 | Cc1cc(C(=O)NC(C)C(F)(F)F)c(=O)[nH]c1C(F)(F)C(F)(F)C(F)(F)F (stereo not drawn) [compound 2251] | >5
51 | CCc1cc(C(=O)NC2CC2)c(=O)[nH]c1C(F)(F)C(F)(F)F [compound 665, N-Cyclopropyl-5-ethyl-2-oxo-6-(pentafluoroethyl)-1,2-dihydropyridine-3-carboxamide] | >5

What follows are compounds tested on Triticum aestivum (assay: Drought stress test on sprayed greenhouse plants, visual damage scoring (Table 4)). Details: efficacy = reduction in damage intensity, dosage 25 g/ha, spray WP, 600 l/ha water.
Format: in vivo
Procedure: as §1

Row | Structure (SMILES) | E (TRZAS)
52 | COCC(C)NC(=O)c1cc(C)c(C(F)(F)C(F)(F)F)[nH]c1=O (stereo not drawn) [compound 272] | >5
53 | CCCc1[nH]c(=O)c(C(=O)N(C)CC(=O)OC)cc1Br [compound 3807] | >5
54 | COCCNC(=O)c1cc(C)c(C(F)(F)C(F)(F)F)[nH]c1=O [compound 266] | >5
55 | CCNC(=O)c1cc(Cl)c(CC)[nH]c1=O [compound 3149] | >5
56 | CCCc1[nH]c(=O)c(C(=O)N(C)CC(=O)OC)cc1I [compound 3917] | >5
57 | CCCNC(=O)c1cc(I)c(CCC)[nH]c1=O [compound 3920] | >5
58 | CCc1[nH]c(=O)c(C(=O)NCCC(C)C)cc1Cl [compound 3170] | >5
59 | CCCc1[nH]c(=O)c(C(=O)NC(C)COC)cc1CC (stereo not drawn) [compound 3639] | >5
60 | CCc1cc(C(=O)N(C)CC(=O)OC)c(=O)[nH]c1C(F)(F)C(F)(F)F [compound 770] | >5
61 | CCCc1[nH]c(=O)c(C(=O)NCC)cc1Cl [compound 3699] | >5
62 | CCCc1[nH]c(=O)c(C(=O)NCCC(C)C)cc1I [compound 3940] | >5

Same assay, conditions: efficacy = reduction in damage intensity, dosage 250 g/ha, spray WP, 600 l/ha water

Row | Structure (SMILES) | E (TRZAS)
63 | COCCCNC(=O)c1cc(C)c(C(F)(F)C(F)(F)F)[nH]c1=O [compound 274] | >5
64 | COC(=O)CN(C)C(=O)c1cc(C)c(C)[nH]c1=O [compound 4027] | >5
65 | CCc1cc(C(=O)NC(C)CN(C)C)c(=O)[nH]c1C(F)(F)C(F)(F)Cl (stereo not drawn) [compound 933] | >5
66 | CCc1[nH]c(=O)c(C(=O)NCCC(C)C)cc1C [compound 2840] | >5
67 | Cc1cc(C(=O)NCCC(C)C)c(=O)[nH]c1C(F)(F)C(F)(F)F [compound 243] | >5

What follows are compounds tested on Zea mays (corn) (assay: Cold stress test on sprayed greenhouse plants, visual damage scoring (Table 1)). Details: efficacy = reduction in damage intensity, dosage 25 g/ha, spray WP, 600 l/ha water.
Format: in vivo
Procedure: Seeds of monocotyledonous and dicotyledonous crop plants are sown in sandy loam in plastic or wood-fiber pots, covered with soil or sand and cultivated in a greenhouse under good growth conditions. The test plants are treated at the early leaf stage (BBCH10-BBCH13). To assure uniform water supply before commencement of stress, the potted plants are supplied with water by dam irrigation prior to substance application.
The inventive compounds, formulated in the form of wettable powders (WP), are sprayed onto the green parts of the plants as an aqueous suspension at an equivalent water application rate of 600 I/ha with addition of 0.2% wetting agent (e.g. agrotin). Substance application is followed immediately by stress treatment of the plants. For this purpose, the wood-fiber pots are transferred in plastic inserts in order to prevent them from subsequently drying out too quickly.
The duration of the respective stress phases is guided mainly by the condition of the stressed control plants. It is ended (by re-irrigating and transfer to a greenhouse with good growth conditions) as soon as irreversible damage is observed on the stressed control plants.
The end of the stress phase is followed by an approx. 4-14-day recovery phase, during which the plants are once again kept under good growth conditions in a greenhouse. The duration of the recovery phase is guided mainly by when the trial plants have attained a state which enables visual scoring of potential effects, and is therefore variable.
Once this juncture has been reached, the intensities of damage are scored visually in comparison to untreated, unstressed controls of the same age. The damage intensity is at first assessed in percent. These values are then used to calculate the efficacy of the test compounds by the following formula:
[formula] • E: Efficacy=reduction in damage intensity as a result of treatment with test substance • DIs: Damage intensity of the stressed control plants • DIt: Damage intensity of the plants treated with test compound […]

Row | Structure (SMILES) | E:E (ZEAMX)
68 | CC(C)(C)CNC(=O)c1cc(I)c(C(F)(F)F)[nH]c1=O [compound 2223] | >5

Same assay, conditions: efficacy = reduction in damage intensity, dosage 250 g/ha, spray WP, 600 l/ha water

Row | Structure (SMILES) | E:E (ZEAMX)
69 | CC(C)C(C)NC(=O)c1cc(Br)c(C(F)C(F)(F)F)[nH]c1=O (stereo not drawn) [compound 2128] | >5
